Measurements as given in BindingDB's records for doi:10.1038/nchembio.65 (University of California San Francisco, 2008).
pEC50: −log10 of the molar value.

Test: Inhibition of yeast prion protein Sup35 infection of PSI yeast spheroplast cells

## O=C1C(I)=CC(=C(c2ccccc2C(=O)O)C2C=C(I)C(=O)C(I)=C2)C=C1I [TERAIODOPHENOLPHATHALIN]
  pEC50: 4.00
